Experimental findings from US9822105B2, “Diaminotriazine compounds as herbicides” (BASF SE, priority 2014, dated 2017) are described below.

Experiment [1] relates to AMARE. As to the kind of experiment: Greenhouse test, post-emergence treatment. In kind it is in vivo, Amaranthus retroflexus. The source says:
(§1) The seeds of the test plants were sown separately for each species. For the post-emergence treatment, the test plants were first grown to a height of […], depending on the plant habit, and only then treated with the active ingredients which had been suspended or emulsified in water. For this purpose, the test plants were either sown directly and grown in the same containers, or they were first grown separately as seedlings and transplanted into the test containers a few days prior to treatment. Depending on the species, the plants were kept at 10-25° C. or 20-35° C., respectively. The test period extended over 2 to 4 weeks. During this time, the plants were tended, and their response to the individual treatments was evaluated. Evaluation was carried out using a scale from 0 to 100. 100 means no emergence of the plants, or complete destruction of at least the aerial moieties, and 0 means no damage, or normal course of growth. […] The plants used in the greenhouse experiments were of the following species: [table]

The test system of another experiment is BRSNW. As to the kind of experiment: Greenhouse test, post-emergence treatment. Format: in vivo, Winter rape. Particulars: 0.0312 kg/ha.
From the text: as §1

In a further experiment the test system is CHEAL. As to the kind of experiment: Greenhouse test, post-emergence treatment. Format: in vivo, Chenopodium album. Particulars: 0.0312 kg/ha.
From the text: as §1

For experiment [2], the system named is AMARE. As to the kind of experiment: Greenhouse test, pre-emergence treatment. Format: in vivo, Amaranthus retroflexus. To be noted: for herbicidal activity: 0.5 kg/ha. The source says:
(§2) The seeds of the test plants were sown separately for each species. For the pre-emergence treatment, the active ingredients, which had been suspended or emulsified in water, were applied directly after sowing by means of finely distributing nozzles. The containers were irrigated gently to promote germination and growth and subsequently covered with transparent plastic hoods until the plants had rooted. This cover caused uniform germination of the test plants, unless this had been impaired by the active ingredients. Depending on the species, the plants were kept at 10-25° C. or 20-35° C., respectively. The test period extended over 2 to 4 weeks. During this time, the plants were tended, and their response to the individual treatments was evaluated. Evaluation was carried out using a scale from 0 to 100. 100 means no emergence of the plants, or complete destruction of at least the aerial moieties, and 0 means no damage, or normal course of growth. […] The plants used in the greenhouse experiments were of the following species: [table]

In a further experiment the test system is ALOMY. As to the kind of experiment: Greenhouse test, pre-emergence treatment. Format: in vivo, Alopecurus myosuroides.
From the text: as §2

The test system of a further experiment is SETFA. As to the kind of experiment: Greenhouse test, pre-emergence treatment. In kind it is in vivo, Setaria faberi. To be noted: 0.5 kg/ha, SETFA.
From the text: as §2

A further experiment relates to ABUTH. As to the kind of experiment: Greenhouse test, post-emergence treatment. Format: in vivo, Abutilon theophrasti.
From the text: as §1

The subject of a further experiment is APESV. As to the kind of experiment: Greenhouse test, pre-emergence treatment. In kind it is in vivo, Apera spica-venti. Particulars: 250 g/ha.
From the text: as §2

For another experiment, the system named is SETVI. As to the kind of experiment: Greenhouse test, post-emergence treatment. Format: in vivo, Setaria viridis. Particulars: 125 g/ha, STEVI.
From the text: as §1

Where [3] appears, read: 500 g/ha, stated in words without grade.

Molecules are shown by their SMILES.

Consider `CC(C)(F)c1nc(N)nc(Nc2c(F)ccc3c2OCO3)n1` [Example 1, N2-(5-fluoro-1,3-benzodioxo1-4-yl)-6-(1-fluoro-1-methyl-ethyl)-1,3,5-triazine-2,4-diamine], for which the herbicidal activity entry is given as “very good (a very good herbicidal activity is given at values of at least 85)” in the experiment with AMARE [1] (0.0312 kg/ha), “good (a good herbicidal activity is given at values of at least 70)” with BRSNW and “good (a good herbicidal activity is given at values of at least 70)” in the experiment with CHEAL.
As for `CC(C)(F)c1nc(N)nc(Nc2c(Br)ccc3c2OCO3)n1` [Example 3], the herbicidal activity result in the experiment on AMARE [2], in the experiment on ALOMY (0.5 kg/ha) and with SETFA was “very good (a very good herbicidal activity is given at values of at least 85)” in each case.
Turning to `Nc1nc(Nc2c(F)ccc3c2OCO3)nc(N2CCC2)n1` [Example 18], the herbicidal activity entry in the experiment with AMARE [1] (setting [3]) and in the experiment on ABUTH (setting [3]) was “herbicidal activity” throughout.
For the compound `CC(C)(F)c1nc(N)nc(Nc2c(Cl)ccc3c2OCO3)n1` [Example 2], the herbicidal activity entry in the experiment with AMARE [2], with ALOMY (0.5 kg/ha) and in the experiment with SETFA was “very good (a very good herbicidal activity is given at values of at least 85)” in each case.
`Nc1nc(Nc2c(Br)ccc3c2OC(F)(F)O3)nc(C2(Cl)CCCC2)n1` [Example 9]: in the experiment with AMARE [1] (500 g/ha), the herbicidal activity entry was “very good (a very good herbicidal activity is given at values of at least 85)”.
Turning to `CC1(c2nc(N)nc(Nc3c(F)ccc4c3OCO4)n2)CCCCC1` [Example 6], in the experiment on AMARE [2] (Amaranthus retroflexus, read-out: herbicidal activity, 250 g/ha), the pest or weed control at 250 g/ha is at least 70%. Further, the herbicidal activity entry is recorded as “good (a good herbicidal activity is given at values of at least 70)” in the experiment on ALOMY (250 g/ha) and “very good (a very good herbicidal activity is given at values of at least 85)” in the experiment with APESV.
On to `CC(C)(F)c1nc(N)nc(Nc2c(F)c(F)cc3c2OCO3)n1` [Example 30], for which the herbicidal activity result in the experiment on AMARE [1] (125 g/ha), with ABUTH (125 g/ha) and with SETVI was “very good (a very good herbicidal activity is given at values of at least 85)” each time.
In the case of `Nc1nc(Nc2c(F)ccc3c2OCO3)nc(N2CCCCC2)n1` [Example 21], the herbicidal activity entry is “very good (a very good herbicidal activity is given at values of at least 85)” in the experiment on AMARE [1] (500 g/ha) and “good (a good herbicidal activity is given at values of at least 70)” with ABUTH (500 g/ha).
